Source: PubChem BioAssay (NCI)
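Exposure lasted 48 hours, with cells grown in 96-well plates and compounds tested at five concentrations. At the GI50, growth is halved. TGI: total growth inhibition.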

Legend:
Assay in all cases: growth of human tumour cells (NCI), 48 h
786-0 renal = test system: 786-0 renal
IGROV1 ovarian = test system: IGROV1 ovarian
K-562 leukemia = test system: K-562 leukemia
MALME-3M melanoma = test system: MALME-3M melanoma
MCF7 breast = test system: MCF7 breast
MDA-MB-231 breast = test system: MDA-MB-231 breast
RPMI-8226 leukemia = test system: RPMI-8226 leukemia
RXF 393 renal = test system: RXF 393 renal
TK-10 renal = test system: TK-10 renal
NCI-H522 lung = test system: NCI-H522 lung

Row | Compound | GI50 (786-0 renal) [µM] | TGI (786-0 renal) [µM] | GI50 (IGROV1 ovarian) [µM] | TGI (IGROV1 ovarian) [µM] | GI50 (K-562 leukemia) [µM] | TGI (K-562 leukemia) [µM] | GI50 (MALME-3M melanoma) [µM] | TGI (MALME-3M melanoma) [µM] | GI50 (MCF7 breast) [µM] | TGI (MCF7 breast) [µM] | GI50 (MDA-MB-231 breast) [µM] | TGI (MDA-MB-231 breast) [µM] | GI50 (RPMI-8226 leukemia) [µM] | TGI (RPMI-8226 leukemia) [µM] | GI50 (RXF 393 renal) [µM] | TGI (RXF 393 renal) [µM] | GI50 (TK-10 renal) [µM] | TGI (TK-10 renal) [µM] | TGI (NCI-H522 lung) [µM] | GI50 (NCI-H522 lung) [µM]
1 | CCC1(NC(=O)c2cc(F)c(F)c(F)c2F)C(=O)NC(=O)N(C(C)C)C1=O (configuration not stated) | > 100 | > 100 | 10.4 | 28.7 | 3.54 | 19.3 | 24.9 | 76.3 | > 100 | > 100 | 19.3 | 48.7 | > 100 | > 100 | 25.3 | 59.1 | > 100 | > 100 | – | –
2 | CCOC(=O)N1C(c2ccccc2)C=CC(c2ccccc2)N1C(=O)OCC (configuration not stated) | – | > 100 | – | > 100 | – | > 100 | – | > 100 | – | – | – | – | – | > 100 | – | > 100 | – | > 100 | – | –
3 | COc1ccc2c(CCNC(=O)/C=C/c3ccccc3)c(C(C)=O)[nH]c2c1[N+](=O)[O-] | – | > 100 | – | 56.2 | – | > 100 | – | – | – | – | – | – | – | > 100 | – | – | – | – | 18.9 | –
4 | Fc1ccc2c(c1)C1=C(CO2)C(c2ccc(Cl)cc2)NC(=S)N1 (configuration not stated) | 21.3 | 46 | 24.3 | 61 | 30.4 | > 100 | – | – | 18.1 | 42.2 | 18.8 | 55.7 | 11.1 | 34.5 | – | – | 59.1 | > 100 | – | –
5 | NCc1c(C(N)=O)ncn1Cc1ccccc1 | – | > 100 | – | > 100 | – | > 100 | – | – | – | – | – | – | – | > 100 | – | > 100 | – | > 100 | – | –
6 | Cn1c(=O)c(C(=O)NC(=O)NCCCCCOC(=O)CCCCCCCCCCC(=O)OCCCCCNC(=O)NC(=O)c2cn(Cc3ccccc3)c(=O)n(C)c2=O)cn(Cc2ccccc2)c1=O | – | > 100 | – | > 100 | – | > 100 | – | > 100 | – | – | – | – | – | > 100 | – | > 100 | – | > 100 | > 100 | –
7 | O=C(Nc1ccc(Br)cc1)C(=O)C(C(=O)c1ccccc1F)C1OC(=O)c2ccccc21 (configuration not stated) | – | 56.8 | – | > 100 | – | > 100 | – | 88.6 | – | – | – | – | – | 64.8 | – | – | – | > 100 | 51.6 | –
8 | CCOC(=O)C(C)(C)Oc1ccc2c(-c3ccc(Cl)cc3)c(-c3ccc(Cl)cc3)c(=O)oc2c1 | – | > 100 | – | > 100 | – | > 100 | – | > 100 | – | – | – | – | – | > 100 | – | > 100 | – | > 100 | – | –
9 | CC(=O)[O-].[Zn].c1ccc(/C(=N\Nc2ccccn2)c2ccccn2)cc1 | 0.366 | 2.16 | – | 0.272 | – | 2.35 | – | 1.58 | – | – | – | – | – | 2.86 | – | – | – | 3.34 | 2.06 | 0.131
10 | COC(=O)[C@]12CC[C@@H](C)[C@H](C)[C@@H]1C1=CC[C@@H]3[C@@]4(C)C(C=O)=C[C@@](C)(COS(C)(=O)=O)C4[C@H](O)C[C@@]3(C)[C@]1(C)CC2 (some centres not stated) | 1.79 | 3.58 | 2.58 | 7.36 | 0.797 | 6.28 | 1.65 | 3.39 | 1.19 | 3.63 | – | – | 0.342 | 1.99 | 1.53 | 2.9 | 2 | 4.91 | 2.91 | 1.21
11 | Cc1ccc(C=NC23CC4CC(CC(C4)C2)C3)cc1 | – | > 100 | – | > 100 | – | > 100 | – | > 100 | – | – | – | – | – | > 100 | – | > 100 | – | > 100 | – | –
12 | CC1CCCc2c1c1ccc3c(O)cccc3c1oc2=O (configuration not stated) | – | 64.7 | – | > 100 | – | > 100 | – | > 100 | – | – | – | – | – | > 100 | – | 73.2 | – | 71.3 | 55.8 | –
13 | O=C(NC1C2CC3CC(C2)CC1C3)/C(Cl)=C1/Sc2ccccc2NC1=O (configuration not stated) | – | > 100 | – | > 100 | – | > 100 | – | > 100 | – | – | – | – | – | – | – | > 100 | – | > 100 | > 100 | –
14 | COc1nc2c(nc(N)n2C2OCC(O)C(O)C2O)c(=O)n1C (configuration not stated) | – | > 100 | – | > 100 | – | > 100 | – | > 100 | – | – | – | – | – | – | – | > 100 | – | > 100 | > 100 | –
15 | COc1ccc2c(c1)c(-c1ccc(-c3cn(C)c4ccc(OC)cc34)[nH]1)cn2C | 12.2 | 36.1 | 1.89 | 4.35 | 1.48 | 6.8 | 2.64 | 9.03 | 5.18 | 24.4 | – | – | 1.28 | 3.38 | 1.4 | 3.52 | 3.56 | 10.7 | – | –
16 | CCN(CC)c1ccc(N=C2C=C(Cl)C(=O)c3ncccc32)c(C)c1 | – | 12.2 | – | 32 | – | 11.1 | – | 10.5 | – | – | – | – | – | 90.3 | – | 17.5 | – | 29.2 | – | –
17 | CS(=O)(=O)N(CCC#N)c1ccc(C=O)cc1 | – | > 100 | – | > 100 | – | > 100 | – | > 100 | – | – | – | – | – | > 100 | – | – | – | – | > 100 | –
18 | N#Cc1ccc(Oc2cccc(Oc3ccccc3)c2)cc1C#N | > 100 | > 100 | > 100 | > 100 | – | > 100 | > 100 | > 100 | – | – | – | – | – | – | – | > 100 | > 100 | > 100 | > 100 | –
19 | O=C(O)c1ccccc1N=Nc1ccc2oc(=O)c(C(=O)Nc3ccccc3)cc2c1 | – | > 100 | – | > 100 | – | > 100 | – | 70.3 | – | – | – | – | – | > 100 | – | > 100 | – | > 100 | > 100 | –
20 | CCn1c(=O)c2ccccc2n2c(=O)c3cc4ccccc4cc3nc12 | – | > 100 | – | > 100 | – | > 100 | – | > 100 | – | – | – | – | – | > 100 | – | 37 | – | > 100 | > 100 | –
21 | Nc1c(C(=O)N/N=C/c2ccc(-c3cc(Cl)c(Cl)cc3Cl)o2)cnn1-c1ccnc2c(C(F)(F)F)cccc12 | 3.96 | > 100 | 4.53 | > 100 | 3 | > 100 | 2.66 | 10.6 | 3.42 | > 100 | 3.83 | 22 | 3.25 | > 100 | – | – | 3.48 | > 100 | 31.1 | 3.37
